Columns and labels:
Type in all cases: in vivo, rat
Npas4 = test: m-RNA analysis of Npas4 in brain regions (Taqman PCR); settings: SC
Protocol: (§1) Animals were killed 60 min after the injection of the drugs by decapitation.
(§2) The brains were dissected into a left and a right part. The left part was analyzed for gene expression and dissected into 4 different areas:
(§3) Limbic system (containing nucleus accumbens, most parts of the olfactory tubercle, ventral pallidum and amygdala), striatum, frontal cortex, and hippocampus.
(§4) Total RNA was prepared by RNeasy Plus Universal Tissue Mini Kit (Qiagen).
(§5) RNA pellets were dissolved in RNAse-free water and stored at −80° C. The sample concentration was determined spectrophotometrically by a NanoDrop ND-1000.
(§6) A two-step reversed transcription was performed by using a SuperScript III kit (Invitrogen). 1 μg of total RNA was reversed transcribed with 5 μl 2×RT Reaction Mix, 1 μl RT Enzyme and the mix volume was adjusted to 10 μl with RNAse-free water. The sample was incubated at 25° C. for 10 min, 50° C. for 30 min and finally 85° C. for 5 min. […]
(§7) EGR-1 (Early growth response qRnoCEP0022872) was analyzed in duplex with the reference gene HPRT (hypoxanthine phosphoribosyltransferase qRnoCEP0050840). Npas4 (neuronal PAS domain protein4 qRnoCEP0029461) was analyzed in singleplex. The reference gene Ppia (cyclophilin A peptidyl-propyl cis-trans isomerase qRnoCIP0050815) was also analyzed in order to quantify gene expression for genes of interest.

egr-1 = test: m-RNA analysis of egr-1 in brain regions (Taqman PCR); settings: SC
Protocol: as §1, §2, §3, §4, §5, §6, §7

Arc mRNA = test: m-RNA analysis of Arc in brain regions (real-time PCR); settings: 0.3 and 1 μmol/kg SC, 60 min after injection, percent of control, FIG. 5
Protocol: as §1, §2, §3, §4, §5
A two-step reversed transcription was performed by using a SuperScript III kit (Invitrogen). 1 μg of total RNA was reversed transcribed with 5 μl 2×RT Reaction Mix, 1 μl RT Enzyme and the mix volume was adjusted to 10 μl with RNAse-free water. The sample was incubated at 25° C. for 10 min, 50° C. for 30 min and finally 85° C. for 5 min. 1 U of E. coli RNase H was added following incubation at 37° C. for 20 min and 85° C. for 5 minutes. The cDNA solution was diluted 40 times in Tris EDTA buffer solution pH8 (Merck) and stored at −20° C.
Three sequences (arc and two reference genes) were amplified together in a triplex PCR-reaction. For real-time PCR measurements: 5 μl of the cDNA reaction was amplified in a 20 μl reaction mixture containing 10 μl PerfeCTa MultiPlex qPCR SuperMix (Quantabio), 3.5 μl RNAse-free water, 0.15 µM of each primer and 0.1 μM of each probe. Real-time PCR was measured on CFX96 (Bio-Rad) using the following settings for all genes: 3 min pre-incubation at 95° C. followed by 40 cycles of denaturation at 95° C. for 15 s, annealing and elongation at 60° C. for 1 min. Reference genes are HPRT and cyclophilin.
FIG. 5 illustrates the effects on tissue levels of Arc mRNA in four different regions of the brain (limbic regions, striatum, frontal cortex and hippocampus) after subcutaneous administration of two different compounds at two different doses as in comparison to that of corresponding control experiments. The bars in the left half of the figure represent the effects on ARC by the prior art compound according to Preparation 4A ((4aR,10aR)-1-propyl-1,2,3,4,4a,5,8,9,10,10a-decahydrobenzo[g]quinolin-6 (7H)-one) and the bars in the right half of the figure represent the effects on ARC by the compound of the present disclosure according to Example 4B ((4aR,10aR)-1-propyl-1,2,3,4,4a,5,6,7,8,9,10,10a-dodecahydrobenzo[g]quinolin-6-ol). The effects on tissue levels of Arc by both of the two aforementioned compounds were measured at two different doses (0.3 μmol/kg and 1 μmol/kg) and the effect is presented as percent of control means±SEM. Statistical significance was assessed using Student's t-test (2 tailed) vs controls.

[1] = test system: non-pre-treated Sprague-Dawley rats; test: Spontaneous locomotor activity (distance travelled); settings: 0.3 μmol/kg SC; for effect on motor activity (distance travelled): n=5, 0-180 min, vs saline, FIG. 6 and 7
Protocol: Behavioral activity was measured using eight Digiscan activity monitors (RXYZM (16) TAO, Omnitech Electronics, Columbus, OH, USA), connected to an Omnitech Digiscan analyzer and an Apple Macintosh computer equipped with a digital interface board (NB DIO-24, National Instruments, USA). Each activity monitor consisted of a quadratic metal frame (W×L=40 cm×40 cm) equipped with photo beam sensors. During measurements of behavioral activity, a rat was put in a transparent acrylic cage (W×L×H, 40×40×30 cm) which in turn was placed in the activity monitor. Each activity monitor was equipped with three rows of infrared photo beam sensors, each row consisting of 16 sensors. Two rows were placed along the front and the side of the floor of the cage, at a 90° angle, and the third row was placed 10 cm above the floor to measure vertical activity. Photo beam sensors were spaced 2.5 cm apart. Each activity monitor was fitted in an identical sound and light attenuating box containing a weak house light and a fan.
The computer software was written using object-oriented programming (LabVIEW™ National instruments, Austin, TX, USA).
Behavioral data from each activity monitor, representing the position (horizontal center of gravity and vertical activity) of the animal at each time, were recorded at a sampling frequency of 25 Hz and collected using a custom written LABView™ application. The data from each recording session were stored and analyzed with respect to distance traveled. Each behavioral recording session lasted 180 min, starting approximately 5 min after the injection of test compound.
Compounds disclosed herein have been tested for effects on spontaneous locomotor activity in non-pre-treated Sprague-Dawley rats (based on accumulated distance travelled 0-180 min post dosing), and with the single dose of 0.3 μmol/kg (n=5, SC) compared to a control group of animals (n=5) that obtained saline (SC). The unit of the distance travelled is an arbitrary unit.
The animals were placed in the motility meters immediately after administration and locomotor activity was recorded for 180 minutes.
Results are presented as distance travelled for the control group (empty bar) and for the group of animals that obtained the drug (filled bar).
The animals were placed in the motility meters immediately after administration and locomotor activity was recorded for 180 minutes. Results are presented as distance travelled for the control group (empty bars) and for the group of animals that obtained the drug (filled bar).

[2] = test system: unilaterally 6-OHDA lesioned rats; test: Contralateral rotations in unilaterally 6-OHDA lesioned rats; settings: for contralateral turns: dopamine-receptor agonist potency / duration of action as compared to that of apomorphine / bioavailability indicated by contralateral turns after IP and PO administration: 0.1 mg/kg, FIG. 4; for contralateral turns: dopamine-receptor agonist potency: IP (n=4) and PO (n=6); for duration of action as compared to that of apomorphine: IP and PO; for bioavailability indicated by contralateral turns after IP and PO administration: IP vs PO
Protocol: Male Sprague-Dawley rats (150 g; Scanbur, Sweden) were used for this study and housed in separate air-conditioned rooms (12-h dark/light cycle) at 20° C. and a humidity of 53%. Experiments were performed in agreement with the European Communities Council Directive of 24 Nov. 1986 (86/609/EEC) on the ethical use of animals and were approved by the local ethical committee at Karolinska Institute. In most of the experiments, unilaterally 6-OHDA lesioned rats were used to mimic aspects of Parkinsonism. Unilateral 6-OHDA lesioning of nigral dopaminergic axons was performed as previously described (Zhang et al., Neuropharmacology 54 (2008) 1143-1152). Briefly, rats were anesthetized with ketamine (100 mg/kg, i.p.; Parke-Davis, Boxmeer, Netherlands)/xylazine (5 mg/kg, i.p.; Bayer, Kiel, Germany), pretreated with desipramine (25 mg/kg, i.p.; Sigma, Stockholm, Sweden) and pargyline (5 mg/kg, i.p.; Sigma), placed in a stereotaxic instrument and injected with 6-OHDA (2.5 p.I of a 5 mg/ml solution; Sigma) into the medial forebrain bundle of the right hemisphere (AP—2.8 mm, ML—2.0 mm and V—9.0 mm). Two weeks after unilateral 6-OHDA lesioning, rats were administered with apomorphine (1 mg/kg, i.p; Sigma), and their contralateral rotations were measured. […] Only rats which rotated contralaterally more than 100 times were included in further experiments.
The time scale is minutes or hours after administration. […] Negative control animals were injected with saline.

SMILES	tissue levels of Npas4 in the limbic regions (Npas4; 60 min after injection)	increase of Npas4 in the limbic regions compared to Preparation 4A (Npas4; vs prior art compound)	tissue levels of egr-1 in the limbic regions (egr-1; 60 min after injection)	increase of egr-1 in the limbic regions compared to Preparation 4A (egr-1; vs prior art compound)	tissue levels of Arc in the frontal cortex (Arc mRNA)	tissue levels of Arc in the limbic regions (Arc mRNA)	on-set of action (distance travelled increases after the initial decrease) [1]	side effect profile, inferred from slower on-set of action [1]	effect on motor activity (distance travelled) [1]	contralateral turns: dopamine-receptor agonist potency [2]	duration of action as compared to that of apomorphine [2]	bioavailability indicated by contralateral turns after IP and PO administration [2]	time at which a long distance travelled is already reached (steep immediate effect) [1]	peak plasma concentration of the active species, inferred from locomotor data ([1]; compared to Example 4B)	contralateral turns as a function of time (course of effect) ([2]; 1 mg/kg i.p., FIG. 3)
CCCN1CCC[C@@H]2CC3=C(CCC[C@H]3O)C[C@H]21 [Example 4B, (4aR,6R,10aR)-1-propyl-1,2,3,4,4a,5,6,7,8,9,10,10a-dodecahydrobenzo[g]quinolin-6-ol]	increases tissue levels	to a greater extent	increases tissue levels	to a greater extent	dose-dependently increase	dose-dependently increases	35 to 40 min	no or a mild side effect profile	induce hyperactivity	highly potent dopamine-receptor agonists	very long duration of action	good bioavailability	–	–	–
CCCN1CCC[C@@H]2CC3=C(CCCC3=O)C[C@H]21 [Preparation 4A, (4aR,10aR)-1-propyl-1,2,3,4,4a,5,8,9,10,10a-decahydrobenzo[g]quinolin-6 (7H)-one]	–	–	–	–	dose-dependently increase	does not have	20 to 25 min	–	induce hyperactivity	–	–	–	20 to 45 min	higher peak plasma concentration	–
CN1CCc2cccc3c2[C@H]1Cc1ccc(O)c(O)c1-3 [apomorphine, reference compound]	–	–	–	–	–	–	–	–	–	–	–	–	–	–	declines over time
CCCN1CCC[C@@H]2CC3=C(CCC[C@@H]3O)C[C@H]21 [epimer 2, (4aR,6S,10aR)-1-propyl-1,2,3,4,4a,5,6,7,8,9,10,10a-dodecahydrobenzo[g]quinolin-6-ol]	–	–	–	–	–	–	–	–	–	highly potent dopamine-receptor agonists	very long duration of action	good bioavailability	–	–	–

Reference: patent publication US20250282733A1, “NOVEL 1,2,3,4,4A,5,6,7,8,9,10,10A-DODECAHYDROBENZO[G]QUINOLIN-6-OL COMPOUNDS AND USES THEREOF” (priority 2022, published 2025)
